Laboratory results from paper PMC6906394, “Radiomodifying action, Pharmacokinetic and Biodistribution of Ethyl 3, 4, 5-trihydroxybenzoate-Implication in development of radiomitigator” (Scientific Reports, 2019).
Entries after “also recorded” stand apart in the source; their conditions may differ.

Legend:
NF-kB [1] = assay: Immunofluorescent staining of NF-kB expression in liver and kidney sections; format: in vivo, mice; details: R + GAE group, compared to irradiated group
Experimental: (§1) Black C57BL/6 male mice weighing 28–30 g were maintained at the Institutional Animal Experimental Facility. Animals were fed according to standard chow diet having free access to food and water ad libitum. The environmental condition was maintained at room temperature (22 ± 2 °C), relative humidity (45–60%) and 12 h dark/light cycle controlled facility. In this study, mice were randomly assigned to four different groups (n = 21) i.e untreated control (UC), GAE-treated (GAE), Radiation + GAE (R + GAE), Radiation group (R). Mice fasted overnight with free access to water before being dosed. Isolated GAE from leaves was dissolved with distilled water and ethanol in (7:3 v/v) and administered orally at a dose of 200 mg/kg body weight to GAE-treated and R + GAE treated groups only. The experiment was carried out in accordance to regulation and guideline of the, Committee for the purpose of control and supervision of Experiments on animals (CPCSEA), and study was approved by Institutional Animal Experimental Committee (IAEC), Institute of Nuclear Medicine & Allied Science, Delhi, India.
Group I untreated control (UC), Group II GAE-treated (GAE), Group III Radiation + GAE (R + GAE) and Group IV Radiation (R) exposed. The GAE was administered orally 15 min post irradiation. […]

[2] = system: whole body 60Co-gamma irradiated mice; assay: Liver and kidney function markers SGOT, SGPT, urea and creatinine after irradiation; format: in vivo
Experimental: as §1
Group I untreated control (UC), Group II GAE-treated (GAE), Group III Radiation + GAE (R + GAE) and Group IV Radiation (R) exposed. The GAE was administered orally 15 min post irradiation. The whole-body radiation (5 Gy) was carried out using Bhabahtron II, Telecobalt machine, Panacea medical technology, Bangalore. The mice exposed at a dose rate of 0.961 Gy/min at field 35 × 35 cm^2 and the distance maintained from the source was 80 cm.
SGOT and SGPT are a biomarker of liver function test used to assess liver function and its damage; whereas, urea and creatinine were used to investigate kidney function and its damage. These biomarkers were analyzed in-vitro by the use of commercially available kits of agape, Kerala, India. The assay were performed according to standard procedure mention in the kit protocol. In-vitro SGOT quantitative determination were based on the reaction of L-aspartate with alpha-ketoglutarate. According to the manufacturer protocol reagent were mix and incubated for 1 minute at 37 °C. The changes in absorbance were recorded per minute during 3 minutes. In-vitro kinetic determination of SGPT were based on the reaction of L-alanine with alpha-ketoglutarate. The reagent were mixed and incubated for 1 minute at 37 °C. the changes in absorbance was recorded per minute during 3 minutes at 340 nm. Urea is in-vitro quantitative determine by the method of Talke et al., 1965. Creatinine were in-vitro determined by kits and it can be measured by quionone pigment photometrically. Reagent were mixed and incubated for 5 minute at 37 °C. the sample absorbance and the standard against the reagent blank were measured at 546 nm.

NF-kB [3] = assay: Quantification of NF-kB in liver and kidney by indirect ELISA; format: in vivo, mice; details: GAE 200 mg/kg oral 15 min after 5 Gy whole body irradiation, p < 0.05, upto 8 h
Experimental: as §1, with “The experiment was carried out in accordance to regulation and guideline of the, Committee for the purpose of control and supervision of Experiments on animals (CPCSEA), and study was approved by Institutional Animal Experimental Committee (IAEC), Institute of Nuclear Medicine & Allied Science, Delhi, India.” left out
Measurement of NF-kB activity was done in accordance to the manufacturer’s protocol purchased from BD-biosciences. […] After development of colour 50 µl of stop solution was added to the wells and absorbance was recorded at 490 nm. A standard curve was prepared from the data produced from the serial dilution of the pure NF-kB proteins with concentration on the x-axis (log scale) vs absorbance on the Y-axis (linear).

[4] = R + GAE group (5 Gy, GAE 200 mg/kg oral 15 min post irradiation), 8 h
[5] = R + GAE group (5 Gy, GAE 200 mg/kg oral 15 min post irradiation), 24 h

For `CCOC(=O)c1cc(O)c(O)c(O)c1` [GAE, Ethyl 3,4,5-trihydroxybenzoate], the “NF-kB positive fluorescence expression” value (NF-kB [1]) was “not strong; also recorded: not positive”, the “change of SGOT, SGPT, urea and creatinine in serum compared to irradiated animals not receiving GAE” value ([2]; GAE 200 mg/kg b.wt oral 15 min post 5 Gy irradiation, P < 0.05) was “significant reduction” and the SGOT level [2, 4] was 24.10 ± 2.4 U/L. For the same molecule, the SGPT level [2, 4] was 36.01 ± 6.1 U/L, the urea level [2, 4] was 18.16 ± 0.003 mg/dL and the SGOT level [2, 5] was 63.11 ± 6.16 U/L. The SGPT level [2, 5] was 62.15 ± 8.63 U/L, the creatinine level ([2]; R + GAE group (5 Gy, GAE 200 mg/kg oral 15 min post irradiation), upto 8 h) was 1.05 ± 0.04 mg/dL and the “duration of radiomodifying action” value ([2]; post irradiation (5 Gy), liver and kidney function biomarkers, efficacy reduced at 24 h) was ≤ 8 h. The “NF-kB level/expression in liver and kidney compared to irradiated mice” value (NF-kB [3]) was “inhibits NF-kB expression; also recorded: significant minimal expression; also recorded: significantly inhibits; also recorded: significantly reduces”.
